# Literature values, collected in patent US10499664B2, “Fish feed formulation of Hypericum perforatum, Rosamarinus officianalis or a mixture thereof” (UNIVERSIDAD DE SANTIAGO DE CHILE, priority 2015, dated 2019).
# Tests used:
# Details in all cases: pre-treatment, inflamed mouse ears
# TNF-α = system: TNF-α
# IL-1β = system: IL-1β
# COX-2 = system: COX-2
Compound,TNF-α gene expression (TNF-α),IL-1β gene expression (IL-1β),COX-2 inhibition (COX-2)
CC(C)c1cc2c(c(O)c1O)[C@@]1(C(=O)O)CCCC(C)(C)[C@@H]1CC2 [carnosic acid],reducing their expression,reducing their expression,selectively inhibiting
CC(C)c1cc2c(c(O)c1O)[C@@]13CCCC(C)(C)[C@@H]1C[C@@H]2OC3=O [carnosol],reducing their expression,reducing their expression,selectively inhibiting
